How the values were obtained:
LNCaP cells [1] = test: LDH activity in the cell culture medium; type: cell-based, human; conditions: for effect on cytotoxicity (LDH activity): 24 hours, H-89 3 μmol/L, RpcAMP 100 μmol/L
Description: (§1) FIG. 3A is an image depicting data from Western blot analysis of lysates of LNCaP cells after treatment with sAC-specific or scrambled siRNA for 72 hours (left panel) or after treatment with sAC-specific or scrambled shRNA for 72 hours (right panel). FIGS. 3B-D are graphs and images which illustrate experimental data depicting the effects of siRNA or shRNA transfection on cell proliferation (FIG. 3B), LDH activity in the cell culture medium (relative units (r.u.)) (FIG. 3C), and cleavage of caspase-3 (FIG. 3D). […] The Western blot data are representative of five independent experiments with similar results.
(§2) FIGS. 5A-5E are graphs and images which illustrate experimental data depicting that sAC controls proliferation and the cell cycle in a PKA-independent and EPAC-dependent manner. FIGS. 5A-5C are graphs depicting statistical analyses of cell number per dish (FIG. 5A), LDH activity in the cell culture medium (relative units (r.u.)) (FIG. 5B), and G2 phase populations (FIG. 5C). Treatments (all 24 hours) were as follows: […], 100 mol/liter 8-pCPT-cAMP (8-pCPT), 100 mol/liter N6-benzoyl-cAMP (6-Bnz), 3 mol/liter H-89, or 100 mol/liter (Rp)-cAMP-S(RpcAMP). […] FIGS. 5D and 5E are images depicting Western blot analysis of the active form of Rap1 (Rap1-GTP) and phosphorylated forms of B-Raf performed with LNCaP cell lysates. Treatment conditions were similar to those described for FIGS. 5A-5C. Treatment was performed for 18 hours. All Western blot data are representative of four to six independent experiments with similar results.

LNCaP cells [2] = test: FACS-based cell cycle analysis; set-up: species or system human; conditions: for effect on distribution of the cell population within the cell cycle: 24 hours, H-89 3 μmol/L, RpcAMP 100 μmol/L
Text: (§3) Treatment conditions were similar to those described for FIGS. 4A-4D. All Western blot data are representative of three to five independent experiments with similar results.
as §2
To understand the mechanisms responsible for the anti-proliferative effect of sAC inhibition, cell cycle analysis was performed using FACS-based cell cycle analysis. Specifically, LNCaP cells were fixed with 70% alcohol, stained with propidium iodide, and treated with RNase (BD Biosciences, San Jose, Calif.). DNA content was analyzed using a FACSCALIBUR™ flow cytometer (BD Biosciences, San Jose, Calif.) and FLOWJO™ software.

LNCaP cells [3] = test: Western blot of Rap1-GTP, Rap1, phospho-B-Raf and B-Raf (EPAC activity); type: cell-based, human
Description: as §2
Production of sAC protein in the LNCaP and PC3 prostate carcinoma cell lines was analyzed by Western blot. In particular, cells were lysed in Laemmli buffer containing 2% SDS, 10% glycerol, 5% 2-mercaptoethanol, 0.002% bromphenol blue, and 0.0625 mol/liter Tris-HCl. Equal amounts of total proteins were separated on SDS-polyacrylamide gels and transferred to a nitrocellulose membrane. The following primary antibodies were used: sAC (clones R21 and R40; provided by Dr. J. Buck) and actin (Millipore, Billerica, Mass.). After incubation with peroxidase-linked and horseradish peroxidase-labeled secondary antibodies, specific bands were visualized by chemiluminescence using an ECL Plus kit. Equivalent sample loading was confirmed by stripping the membranes with RESTORE™ Western blot stripping buffer (Thermo Fisher Scientific, Rockford, Ill.), followed by treatment with anti-actin antibody.
To test the role of EPAC in proliferation control, the effects of inhibition of sAC on EPAC activity in LNCaP cells was examined.

LNCaP cells [4] = test: Cell proliferation (cell number per dish); type: cell-based, human; conditions: for effect on proliferation in cells treated with the sAC inhibitor KH7: co-treatment with KH7, 24 hours; for effect on proliferation: LNCaP control cells, H-89 3 μmol/L, RpcAMP 100 μmol/L
Description: (§4) FIG. 2 is a graph which illustrates experimental data depicting the effects of the sAC inhibitor KH7 on prostate cancer cell proliferation. Statistical analyses are presented for cellular cAMP content and cell number per dish (starting density: 150,000 cells/dish) 24 hours after KH7 treatment. Values are the mean±SEM (n=5-8). *p<0.05 vs. 0 μmol/L KH7.
as §1, §2
(§5) The androgen-sensitive LNCaP (ATCC-Nr. CRL-1740D) human prostate carcinoma cell line, the androgen-insensitive PC3 (ATCC-Nr. CRL-1435D) human prostate carcinoma cell line, and neuroblastoma cell line SH-SY5Y (ATCC-Nr. CRL-2266) were purchased from the American Type Culture Collection, and human normal prostate epithelial cell line PNT2 was purchased from Sigma-Aldrich (Cat. Nr. 95012613). Cells were expanded and frozen in aliquots within four weeks of purchase. Cells were thawed and cultured for no more than three further passages. PNT2 cells were cultured in medium RPMI1640 supplemented with 10% fetal calf serum, glutamine and antibiotics. All other cells were cultured in Dulbecco's modified Eagle's medium that was supplemented with 5% fetal calf serum, glutamine, and antibiotics. The cells (1.5×10^5) were seeded in culture medium with 2% fetal calf serum 24 hours prior to each experiment.
To further substantiate the role of sAC in cell growth and death, the sAC gene expression/sAC protein production was suppressed in LNCaP cells. Two different methods of sAC knockdown, lipofectamine-based transfection with sAC-specific siRNA or adenoviral transfection with shRNA, were used to further rule out the possibility of KH7 off-target effects. For lipofectamine-based siRNA transfection, LNCaP cells were treated with siRNA duplexes that consisted of four different predesigned sequences targeting the human sAC mRNA sequence (GenBank Accession No. NM_001167749; Dharmacon, Lafayette, Colo.; catalogue no. L-006353-00,). In the control group, cells were treated with scrambled non-targeting siRNA (Dharmacon, Lafayette, Colo.; catalogue no. D-001810-10). Cells were transfected following the manufacturer's instructions. Briefly, cells were seeded 1 day before transfection in Dulbecco's modified Eagle's medium that was supplemented with 2% fetal calf serum without antibiotics.

PC3 cells [5] = test: Cellular cAMP content after KH7 treatment; type: cell-based, human; conditions: PC3, 24 hours, dose-dependent
Description: as §4
as §5, with “experiment. […]” for “experiment.”

LNCaP cells [6] = test: Cellular cAMP content after KH7 treatment; type: cell-based, human; conditions: 24 hours, dose-dependent
Description: as §4
as §5, with “experiment. […]” for “experiment.”

LNCaP cells [7] = test: Western blot of proteins controlling cell cycle progression (cyclins, CDK1); conditions: sAC inhibition
Description: Production of sAC protein in the LNCaP and PC3 prostate carcinoma cell lines was analyzed by Western blot. […] Equal amounts of total proteins were separated on SDS-polyacrylamide gels and transferred to a nitrocellulose membrane. […] After incubation with peroxidase-linked and horseradish peroxidase-labeled secondary antibodies, specific bands were visualized by chemiluminescence using an ECL Plus kit.
To investigate how sAC controls the G2/M transition, the expression of various cyclins and CDK1 was examined via Western blot as described above using the following primary antibodies: CDK1, phospho-CDK1, cyclin B1, cyclin D1, cyclin D3, and cyclin E2.

tmAC = conditions: up to 100 μmol/L; cited from earlier work
soluble guanylyl cyclase = conditions: up to 100 μmol/L; cited from earlier work
LNCaP cells [8] = test: Caspase-3 cleavage (Western blot); type: cell-based, human
Description: as §1, §3
Production of sAC protein in the LNCaP and PC3 prostate carcinoma cell lines was analyzed by Western blot. In particular, cells were lysed in Laemmli buffer containing 2% SDS, 10% glycerol, 5% 2-mercaptoethanol, 0.002% bromphenol blue, and 0.0625 mol/liter Tris-HCl. Equal amounts of total proteins were separated on SDS-polyacrylamide gels and transferred to a nitrocellulose membrane. The following primary antibodies were used: sAC (clones R21 and R40; provided by Dr. J. Buck) and actin (Millipore, Billerica, Mass.). […]

PC3 cells [9] = test: Cell proliferation (cell number per dish); type: cell-based, human; conditions: PC3, 24 hours, dose-dependent
Description: as §4
as §5, with “experiment. […]” for “experiment.”

PC3 and LNCaP cells = test: Cell growth and death analysis after 48 hours KH7 (LDH release, subG1, caspase-3 cleavage); type: cell-based, human; conditions: 20 μmol/L
Text: as §5
Treatment with KH7 reduced the intracellular cAMP content and suppressed cell proliferation in a dose-dependent manner in both cell lines with a maximal effect at 20 μmol/L, as shown in FIG. 2.

[10] = co-treatment with KH7, 24 hours

## Nc1ncnc2c1nc(Sc1ccc(Cl)cc1)n2[C@@H]1O[C@@H]2COP(=O)(O)O[C@H]2[C@H]1O [8-pCPT, 8-pCPT-cAMP]
LNCaP cells [1]; [10]
  effect on LDH release induced by sAC inhibition: prevented
LNCaP cells [2]; [10]
  effect on cell cycle block induced by sAC inhibition: prevented
LNCaP cells [3]; co-treatment with KH7
  effect on KH7-induced change of Rap1-GTP expression: reversed
LNCaP cells [4]; LNCaP
  effect on proliferation in cells treated with the sAC inhibitor KH7: prevented

## O=S(=O)(NCCNC/C=C/c1ccc(Br)cc1)c1cccc2cnccc12 [H-89]
LNCaP cells [1]
  effect on cytotoxicity (LDH activity): no effect
LNCaP cells [2]
  effect on distribution of the cell population within the cell cycle: no effect
LNCaP cells [4]; 24 hours
  effect on proliferation: no effect

## CC(Sc1nc2ccccc2[nH]1)C(=O)N/N=C/c1cc(Br)ccc1O (stereo not drawn) [KH7, (E)-2-(1H-benzo[d]imidazol-2-ylthio)-N′-(5-bromo-2-hydroxybenzylidene)propanehydrazide]
PC3 cells [5]
  reduction of intracellular cAMP content, concentration of maximal effect: 20 µmol/L
LNCaP cells [6]
  reduction of intracellular cAMP content, concentration of maximal effect: 20 µmol/L
LNCaP cells [7]
  expression of cyclin D1: not altered
  expression of cyclin D3: not altered
  expression of cyclin E2: not altered
LNCaP cells [2]; 24 hours, or siRNA transfection
  effect on cell cycle phases: cell cycle arrest at the G2 phase
LNCaP cells [2]; time course over 48 hours
  time at which percentage of cells in G2-phase reached maximal value: 24 h
  time at which percentage of cells in G2-phase started to rise: 12 h
tmAC
  effect on tmAC: no effect
LNCaP cells [3]; 18 hours
  Rap1-GTP (active form of Rap1) expression: significantly depleted
  phosphorylation of B-Raf: suppressed
LNCaP cells [3]; KH7 treatment, n=6, 0.79+0.01 in control
  expression of Rap1, optical band density as ratio to actin band density: 0.81+0.07
LNCaP cells [3]; KH7 treatment, n=8, 1.13+0.06 in control
  expression of B-Raf, optical band density as ratio to actin band density: 1.02+0.04
Soluble guanylyl cyclase
  effect on soluble guanylyl cyclase: no effect
LNCaP cells [8]; time course over 48 hours
  time at which cleavage of caspase-3 first appeared: 24 h
LNCaP cells [4]; LNCaP, 24 hours, dose-dependent
  suppression of cell proliferation, concentration of maximal effect: 20 µmol/L
PC3 cells [9]
  suppression of cell proliferation, concentration of maximal effect: 20 µmol/L
PC3 and LNCaP cells
  apoptosis (subG1 population and cleavage of caspase-3): apoptosis

## O=C(Nc1ncnc2c1ncn2[C@@H]1O[C@@H]2COP(=O)(O)O[C@H]2[C@H]1O)c1ccccc1 [N^6-benzoyl-cAMP]
LNCaP cells [4]; 24 hours
  effect on proliferation: no effect
LNCaP cells [4]; LNCaP
  effect on proliferation in cells treated with the sAC inhibitor KH7: no effect

## Nc1ncnc2c1ncn2[C@@H]1O[C@@H]2CO[P@@](O)(=S)O[C@H]2[C@H]1O [RpcAMP, (Rp)-cAMP-S]
LNCaP cells [1]
  effect on cytotoxicity (LDH activity): no effect
LNCaP cells [2]
  effect on distribution of the cell population within the cell cycle: no effect
LNCaP cells [4]; 24 hours
  effect on proliferation: no effect

B1: shRNA: adenovirus-driven anti-sAC-directed shRNA, hairpin construct of SEQ ID NO: 10 targeting rat sAC mRNA (nucleic acid)
chain: GGGGTACCAAAAAAGTGGAAAGTGGAACGAAAGCATCTCTTGAATGCTTTCGTTCCACTTTCCACAAACAAGGCTTTTCTCCAAG
LNCaP cells [1]; 72 hours
  LDH release after sAC knockdown: induced LDH release
LNCaP cells [8]; 72 hours
  caspase-3 cleavage after sAC knockdown: led to caspase-3 cleavage
LNCaP cells [4]; LNCaP, 72 hours, reduction from 6.37×10^5
  cell numbers after sAC knockdown: 3.56×10^5

From patent US10568869B2, “Methods for diagnosing and treating prostate cancer” (Cornell University, priority 2012, dated 2020)
